Source: patent US11571418B2, “Platinum compounds that inhibit constitutive STAT3 signaling and induce cell cycle arrest and apoptosis of malignant cells” (H. LEE MOFFITT CANCER CENTER AND RESEARCH INSTITUTE, INC., priority 2011, dated 2023)

Key:
Experiment in all cases: TUNEL analysis of apoptosis
Type in all cases: cell-based, human
A549 = conditions: 48 h
Source text: (§1) FIGS. 7A-7C. TUNEL analysis of PLATINUM-401-mediated apoptosis. (FIG. 7A) Normal NIH3T3 fibroblasts and their v-Src-transformed counterparts (NIH3T3/v-Src), human breast carcinoma cell lines (MDA-MB-453, MDA-MB-435, MDA-MB-468, and MDA-MB-231), human non-small cell lung cancer cell line (A549), human prostate cancer cell line (DU145), multiple myeloma 5TGM1 (mouse) and U266 (human) cell lines, mouse melanoma cell line (B16) and human pancreatic cancer cell line (Panc1) were all treated with or without PLATINUM-401 for 48 h and analyzed by TUNEL for DNA damage. For each cell line, the activated Stat3 status is indicated as (−), no constitutively-active Stat3 and (+), constitutively-active Stat3 (see FIG. 5A). Data are representative of 3 independent determinations; (FIG. 7B) Human breast cancer cell lines (MDA-MB-453, MDA-MB-468 and MDA-MB-435) were transfected with or without Stat3β or Stat3 antisense (Stat3AS), or were treated with or without Stat3 peptidomimetic inhibitor, ISS 610 (1 mM) or PLATINUM-401 (5 μM)). Forty-eight hours afterwards, cells were harvested and processed for TUNEL analysis; (FIG. 7C) The viral Src-transformed NIH3T3/v-Src fibroblasts were transfected with or without wild-type Stat3 (pRc/CMV Stat3 Flag) and treated with or without 5 μM PLATINUM-401 for 36 h. Cells were subsequently harvested for nuclear extracts preparation and Stat3 DNA-binding assay in vitro with EMSA analysis (left panel), or were processed for TUNEL analysis (right panel).
(§2) Cell proliferation and TUNEL assays—Proliferating cells were first treated with or without PLATINUM-401 for up to 48 h. A portion of cells were harvested for BrdU incorporation following the manufacturer's (BD Biosciences Pharmingen, San Diego, Calif.) instructions and analyzed by flow cytometry. Harvested cells were also analyzed for apoptosis via detection of TdT-mediated dUTP nick-end labeling (TUNEL) assay using Apoptosis Detection Systems Fluorescein according to the manufacturer's (Roche, Indianapolis, Ind.) instructions. Oligonucleotides and plasmids Transfections. The Stat3 antisense (5′-[…]-3′) (SEQ ID NO:3) or control mismatch oligonucleotides (5′-[…]-3′) (SEQ ID NO:4) were synthesized using phosphorothioate chemistry and were synthesized with 2′-Omethoxyethyl modification of the five terminal nucleotides (underlined; (Mora et al., 2002; Karras et al., 2000)) to increase stability. Transfections of Stat3AS and plasmids were carried out with Lipofectamine 2000 (LF) according to the manufacturer's instructions (Invitrogen, Carlsbad, Calif.). Briefly, cells were seeded at 1-2×10^6 cells/10-cm tissue-culture plates 18 h before transfection. Immediately before transfection, cells were washed once with PBS. Cells were transfected with luciferase reporters (4 μg) in the presence or absence of v-Src (4 μg), or were transfected with Stat3β (4 μg) or pRC/CMV Stat3 Flag (4 μg). Stat3AS transfections were carried out LF alone, or with LF/Stat3 antisense oligonucleotides, or LF/Stat3 mismatch oligonucleotides (final concentration of the oligonucleotides was 250 nM). After 2-3 h, the transfection medium was aspirated and cells washed with PBS before fresh medium added containing 10% FBS was added.
(§3) Cells were analyzed for DNA-strand breaks by TUNEL staining. […] The incidence of apoptosis correlated with the prevalence of constitutively-active Stat3 in malignant cells (FIG. 7, lower panel). Moreover, the incidence of apoptosis by PLATINUM-401 in breast cancer cell lines (MDA-MB-468 and MDA-MB-435) harboring constitutively-active Stat3 compares favorably to that induced by other previously investigated Stat3 inhibitory approaches, such as Stat3β (Garcia et al., 2001), Stat3 antisense (Stat3AS) (Mora et al., 2002), peptidomimetic inhibitor of Stat3 (ISS 610) (FIG. 7B) (Turkson et al., 2004c), and contrasts with the absence of apoptosis in breast cancer cell line, MDA-MB-453 that lacks constitutively-active Stat3. […]

DU145 = conditions: 48 h
Source text: as §1, §2, §3

MDA-MB-435 = conditions: 48 h
Source text: as §1, §2, §3

MDA-MB-453 = conditions: 48 h, no aberrant Stat3 activity
Source text: as §1, §2, §3

MDA-MB-468 = conditions: 48 h
Source text: as §1, §2, §3

MDA-MD-231 = conditions: 48 h
Source text: as §1, §2, §3

Panc1 = conditions: 48 h
Source text: as §1, §2, §3

U266 = conditions: 48 h
Source text: as §1, §2, §3

Measured: TUNEL staining

CC(O)CN1CCN(CC(C)O)CC1 (centres unmarked) [PLATINUM-401]
no TUNEL staining: MDA-MB-453
Significant TUNEL staining: all other assays above
